Test results from patent publication US8337835B2, “Use of an endogenous ligand for peroxisome proliferator activated receptor alpha to treat liver disorders” (priority 2009, dated 2012).

Tested on: hepatic steatosis
Experiment: Portal vein infusion, liver fat / triglyceride content in zero fat diet and fasting fatty liver model
Type: in vivo, mouse

Which results are given for `CCCCCCCC/C=C\CCCCCCCC(=O)O[C@H](COC(=O)CCCCCCCCCCCCCCC)COP(=O)([O-])OCC[N+](C)(C)C` [16:0/18:1-GPC, 1-palmitoyl-2-oleoyl-sn-glycerol-3-phosphocholine]?
liver lipid content (PPARα-deficient mice, 10 mg/kg intraportal three times a day, 5 days ZFD, 24 h fast): unaffected; liver fat content (control (C57/BL6) mice, 10 mg/kg intraportal three times a day, 5 days ZFD, 24 h fast, vs vehicle): decreased; effect of intraperitoneal administration (intraperitoneal route, preliminary results (data not shown)): no effect
